Measured values taken from ChEMBL document CHEMBL1138941, “BACE-1 inhibition by a series of psi[CH2NH] reduced amide isosteres” (Bioorg Med Chem Lett, 2006).

Key:
Beta-secretase 1 [1] = target: T1, Beta-secretase 1 (Homo sapiens, UniProt P56817); assay: Inhibition of BACE1
Beta-secretase 1 [2] = target: T1, Beta-secretase 1; assay: Inhibition of soluble APPbeta N-terminal fragment production in HEK293T cells; format: functional, cell-based, HEK-293T
[3] = Apparent permeability of the compound; format: ADME; conditions: not told

T1 sequence (P56817 whole entry, the tested form may be a part): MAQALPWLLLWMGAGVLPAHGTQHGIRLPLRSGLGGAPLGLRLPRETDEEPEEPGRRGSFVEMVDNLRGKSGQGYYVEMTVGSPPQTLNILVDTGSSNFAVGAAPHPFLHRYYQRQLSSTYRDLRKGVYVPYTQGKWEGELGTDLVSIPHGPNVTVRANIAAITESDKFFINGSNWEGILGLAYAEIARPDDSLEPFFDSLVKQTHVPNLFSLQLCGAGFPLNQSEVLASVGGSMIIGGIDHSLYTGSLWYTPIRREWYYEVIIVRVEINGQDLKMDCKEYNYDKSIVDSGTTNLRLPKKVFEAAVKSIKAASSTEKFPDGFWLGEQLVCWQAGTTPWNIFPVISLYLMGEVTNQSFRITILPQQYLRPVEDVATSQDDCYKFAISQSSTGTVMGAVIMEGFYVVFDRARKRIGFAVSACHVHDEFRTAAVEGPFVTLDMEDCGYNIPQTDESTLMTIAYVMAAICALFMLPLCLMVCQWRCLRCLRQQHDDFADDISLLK

Row | IC50 (Beta-secretase 1 [1]) [nM] | IC50 (Beta-secretase 1 [2]) [nM] | Papp [3] [×10⁻⁶ cm/s] | Structure (SMILES)
1 | 52 | 242 |  | CCNC(=O)[C@H](C)NC[C@H](Cc1ccccc1)NC(=O)c1cc(C(=O)N[C@H](C)c2ccc(F)cc2)cc(N(C)S(C)(=O)=O)c1
2 |  | 22 | 10 | CC(C)CNC(=O)[C@H](C)NC[C@H](Cc1ccccc1)NC(=O)c1cc(C(=O)N[C@H](C)c2ccc(F)cc2)cc(N(C)S(C)(=O)=O)c1
3 | 5900 |  |  | C[C@@H](NC(=O)c1cc(C(=O)N[C@H](CN)Cc2ccccc2)cc(N(C)S(C)(=O)=O)c1)c1ccc(F)cc1
4 | 630 |  |  | C[C@@H](NC(=O)c1cc(C(=O)N[C@H](CO)Cc2ccccc2)cc(N(C)S(C)(=O)=O)c1)c1ccc(F)cc1
5 | 7 | 20 |  | CC[C@H](NC[C@H](Cc1ccccc1)NC(=O)c1cc(C(=O)N[C@H](C)c2ccc(F)cc2)cc(N(C)S(C)(=O)=O)c1)C(=O)NCC(C)C
6 | 13 | 751 |  | CC(C)CNC(=O)[C@H](CCO)NC[C@H](Cc1ccccc1)NC(=O)c1cc(C(=O)N[C@H](C)c2ccc(F)cc2)cc(N(C)S(C)(=O)=O)c1
7 | 13 | 17500 |  | CC(C)CNC(=O)[C@H](CCS(C)(=O)=O)NC[C@H](Cc1ccccc1)NC(=O)c1cc(C(=O)N[C@H](C)c2ccc(F)cc2)cc(N(C)S(C)(=O)=O)c1
8 | 139 | 731 |  | C[C@H](NC[C@H](Cc1ccccc1)NC(=O)c1cc(C(=O)N[C@H](C)c2ccc(F)cc2)cc(N(C)S(C)(=O)=O)c1)C(=O)NCc1ccccc1
9 | 17200 | > 20000 |  | C[C@H](NC[C@H](Cc1ccccc1)NC(=O)c1cc(C(=O)N[C@H](C)c2ccc(F)cc2)cc(N(C)S(C)(=O)=O)c1)C(=O)N1CCC[C@H]1C(=O)O
10 | 4 | 17 |  | CCC[C@H](NC[C@H](Cc1ccccc1)NC(=O)c1cc(C(=O)N[C@H](C)c2ccc(F)cc2)cc(N(C)S(C)(=O)=O)c1)C(=O)NCC(C)C
11 | 24 | 133 |  | C[C@H](NC[C@H](Cc1ccccc1)NC(=O)c1cc(C(=O)N[C@H](C)c2ccc(F)cc2)cc(N(C)S(C)(=O)=O)c1)C(=O)NC1CC1
12 | 117 | 3710 |  | CC(C)CNC(=O)CNC[C@H](Cc1ccccc1)NC(=O)c1cc(C(=O)N[C@H](C)c2ccc(F)cc2)cc(N(C)S(C)(=O)=O)c1
13 |  |  | 0.6 | C[C@@H](NC(=O)c1cc(C(=O)N[C@@H](Cc2ccccc2)[C@H](O)CNC2CC2)cc(N(C)S(C)(=O)=O)c1)c1ccc(F)cc1

Row | Structure (SMILES) | IC50 (Beta-secretase 1 [1]) [nM] | IC50 (Beta-secretase 1 [2]) [nM] | Papp [3] [×10⁻⁶ cm/s]
14 | CC(C)CNC(=O)[C@H](C)NC[C@H](Cc1ccccc1)NC(=O)c1cc(CCC2C[C@@H]2C)cc(N(C)S(C)(=O)=O)c1 (stereo partly specified) | 20 | 23 | 24
